Broadly, the IC50 is the concentration that inhibits the measured activity by half.

The target in the experiment is T1, human TPH1 (Homo sapiens, UniProt P17752).
T1 sequence (P17752 1-444): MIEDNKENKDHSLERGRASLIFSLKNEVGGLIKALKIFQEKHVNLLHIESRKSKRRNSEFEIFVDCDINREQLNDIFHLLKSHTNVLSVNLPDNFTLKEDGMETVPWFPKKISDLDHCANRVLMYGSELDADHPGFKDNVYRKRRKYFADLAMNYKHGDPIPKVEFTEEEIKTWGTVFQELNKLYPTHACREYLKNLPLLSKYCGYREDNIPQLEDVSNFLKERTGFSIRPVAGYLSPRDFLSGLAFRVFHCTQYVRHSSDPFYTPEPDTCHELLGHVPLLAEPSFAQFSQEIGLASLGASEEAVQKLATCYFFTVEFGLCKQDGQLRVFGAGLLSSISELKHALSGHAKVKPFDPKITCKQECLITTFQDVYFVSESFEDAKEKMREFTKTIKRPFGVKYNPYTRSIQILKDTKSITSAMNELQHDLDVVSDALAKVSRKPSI
The experiment is described as follows: biochemical. The text has this: Biochemical In Vitro Assay Using Fluorescence Readout
To generate the enzyme, full length human TPH1 is cloned into the plasmid pET20b(+) (Novagen) and expressed in E. coli. The bacterial cells are ruptured by sonication on ice and the lysate is cleared by centrifugation. The resulting protein in the pellet is re-extracted and TPH1 is purified from the obtained lysate by affinity chromatography using a pterin cosubstrate analog immobilized to the resin of the column. The protein is further purified by size exclusion chromatography to remove protein aggregates. The activity of TPH1 is determined by using a fluorescence assay. The enzyme activity assay is carried out at 15° C. with atmosphere oxygen for the duration of 60 minutes in a volume of 64 μl. The reaction is carried out in a 0.1 M Tris-HCl buffer, adjusted to pH 7.6, containing 1 mM DTT, 0.2 mg/mL catalase, 100 μM (±)-6-methyl-5,6,7,8-tetrahydropterine dihydrochloride, 40 μM L-tryptophan, and 40-80 nM of TPH1. The reaction is started by bringing together L-tryptophan with all the other reaction substituents and stopped by quenching with perchloric acid (HClO4). The amount of 5-hydroxy-L-tryptophan produced during the enzymatic reaction is determined by fluorescence readout. Fluorescence, as determined at 540 nm when excited at 300 nm wavelength, increases proportionally to the 5-hydroxy-L-tryptophan formed. Compounds are prepared as 10 mM stock solution in DMSO, then diluted in 384-well plates using DMSO followed by a transfer of the dilutions into the assay plate. Fluorescence is measured for each well and the fluorescence at 540 nm wavelength is compared to the fluorescence of the vehicle in place of compound. […] The calculated IC50 values may fluctuate depending on the daily biochemical assay performance. Fluctuations of this kind are known to those skilled in the art.
The compound `Cn1nc(OCC(=O)N2CCc3nc4cc(C(F)(F)F)ccn4c3C2c2ccc(Cl)cc2F)c(Cl)c1C(F)(F)F` (stereo not shown) [Example 3.4.3, 2-((4-chloro-1-methyl-5-(trifluoromethyl)-1H-pyrazol-3-yl)oxy)-1-(1-(4-chloro-2-fluorophenyl)-7-(trifluoromethyl)-3,4-dihydroimidazo[1,2-a:5,4-c′]dipyridin-2(1H)-yl)ethan-1-one] yielded an IC50 of 64 nM. In the case of `COC(C)(C)c1ccc(C2c3c(nc4ccccn34)CCN2C(=O)COc2ccc(C(=O)NC3CC3)nc2Cl)c(F)c1` (stereo not shown) [Example 1.17.1, 6-chloro-N-cyclopropyl-5-(2-(1-(2-fluoro-4-(2-methoxypropan-2-yl)phenyl)-3,4-dihydroimidazo[1,2-a:5,4-c′]dipyridin-2(1H)-yl)-2-oxoethoxy)picolinamide] it was 140 nM; in that of `O=C(COc1ccc(C(F)(F)F)nc1Cl)N1CCc2nc3cccnn3c2C1c1ncc(C2CC2)cc1F` (stereo not shown) [Example 16.2.6, 2-((2-chloro-6-(trifluoromethyl)pyridin-3-yl)oxy)-1-(9-(5-cyclopropyl-3-fluoropyridin-2-yl)-6,9-dihydropyrido[4′,3′:4,5]imidazo[1,2-b]pyridazin-8(7H)-yl)ethan-1-one], 290 nM; in that of `O=C(COc1ccc(N2CCOCC2)cc1Cl)N1CCc2nc3ccccn3c2C1c1ccc(C2CC2)cc1F` (stereo not shown) [Example 1.5.1, 2-(2-chloro-4-morpholinophenoxy)-1-(1-(4-cyclopropyl-2-fluorophenyl)-3,4-dihydroimidazo[1,2-a:5,4-c′]dipyridin-2(1H)-yl)ethan-1-one], 9 nM. In the case of `COc1ccc(C2c3c(nc4cc(Cl)ccn34)CCN2C(=O)COc2ccc(CN3CCOCC3)cc2Cl)c(F)c1` (stereo not shown) [Example 2.3.1, 1-(7-chloro-1-(2-fluoro-4-methoxyphenyl)-3,4-dihydroimidazo[1,2-a:5,4-c′]dipyridin-2(1H)-yl)-2-(2-chloro-4-(morpholinomethyl)phenoxy)ethan-1-one] it was 8 nM. In the case of `CCc1nc(NS(C)(=O)=O)ccc1OCC(=O)N1CCc2nc3ccc(F)cn3c2C1c1ccc(Cl)cc1F` (stereo not shown) [Example 11.2.2, N-(5-(2-(1-(4-chloro-2-fluorophenyl)-8-fluoro-3,4-dihydroimidazo[1,2-a:5,4-c′]dipyridin-2(1H)-yl)-2-oxoethoxy)-6-ethylpyridin-2-yl)methanesulfonamide] it was 34 nM.

As for `COc1ccc(C2c3c(nc4ccc(-c5ccccc5)cn34)CCN2C(=O)COc2ccc3ccccc3c2)cc1OC` (stereo not shown) [Example 8.1.1, 1-(1-(3,4-dimethoxyphenyl)-8-phenyl-3,4-dihydroimidazo[1,2-a:5,4-c′]dipyridin-2(1H)-yl)-2-(naphthalen-2-yloxy)ethan-1-one], the IC50 is 38 nM. As for `COc1ccc(C2c3c(nc4cc(C(F)(F)F)ccn34)CCN2C(=O)COc2ccc3ccccc3c2)cc1OC` (stereo not shown) [Example 3.1.1, 1-(1-(3,4-dimethoxyphenyl)-7-(trifluoromethyl)-3,4-dihydroimidazo[1,2-a:5,4-c′]dipyridin-2(1H)-yl)-2-(naphthalen-2-yloxy)ethan-1-one], the midpoint of inhibition, the IC50, lay at 15 nM. Against the preceding compound, the IC50 is about 2.5-fold lower.

In the case of `CS(=O)(=O)Nc1ccc(OCC(=O)N2CCc3nc4cc(C(F)(F)F)ccn4c3C2c2ccc(Cl)cc2F)c(Cl)n1` (stereo not shown) [Example 3.4.7, N-(6-chloro-5-(2-(1-(4-chloro-2-fluorophenyl)-7-(trifluoromethyl)-3,4-dihydroimidazo[1,2-a:5,4-c′]dipyridin-2(1H)-yl)-2-oxoethoxy)pyridin-2-yl)methanesulfonamide], the concentration for half-maximal inhibition (IC50) stood at 5 nM. The compound `COc1ccc(C2c3c(nc4cc(C(F)(F)F)ccn34)CCN2C(=O)COc2ccc(CN3CCOCC3)cc2Cl)c(F)c1` (stereo not shown) [Example 3.3.2, 2-(2-chloro-4-(morpholinomethyl)phenoxy)-1-(1-(2-fluoro-4-methoxyphenyl)-7-(trifluoromethyl)-3,4-dihydroimidazo[1,2-a:5,4-c′]dipyridin-2(1H)-yl)ethan-1-one] showed an IC50 of 7 nM. This IC50 and that of the compound before are within 1.5-fold of each other. Turning to `O=C(COc1ccc2ccccc2c1)N1CCc2nc3cc(C(F)(F)F)ccn3c2C1c1cc(-c2ccc(F)cc2)on1` (stereo not shown) [Example 3.47.1, 1-(1-(5-(4-fluorophenyl)isoxazol-3-yl)-7-(trifluoromethyl)-3,4-dihydroimidazo[1,2-a:5,4-c′]dipyridin-2(1H)-yl)-2-(naphthalen-2-yloxy)ethan-1-one], it took 368 nM to reach half-maximal inhibition (IC50).

On to `COc1ccc(C2c3c(nc4cc(Cl)ccn34)CCN2C(=O)COc2ccc([N+](=O)[O-])cc2Cl)cc1OC` (stereo not shown) [Example 2.1.4, 1-(7-chloro-1-(3,4-dimethoxyphenyl)-3,4-dihydroimidazo[1,2-a:5,4-c′]dipyridin-2(1H)-yl)-2-(2-chloro-4-nitrophenoxy)ethan-1-one], for which the IC50 turned out to be 390 nM.

Consider `COc1ccc([C@@H]2c3c(nc4cc(Cl)ccn34)CCN2C(=O)COc2ccc(N3CCOCC3)cc2Cl)cn1` [Example 2.5.1, 1-((1R)-7-chloro-1-(6-methoxypyridin-3-yl)-3,10a-dihydroimidazo[1,2-a:5,4-c′]dipyridin-2(1H)-yl)-2-(2-chloro-4-morpholinophenoxy)ethan-1-one], for which it took 89 nM to reach half-maximal inhibition (IC50).

For the compound `CCc1ncccc1OCC(=O)N1CCc2nc3ccccn3c2C1c1ccc(Cl)cc1F` (stereo not shown) [Example 1.4.2, 1-(1-(4-chloro-2-fluorophenyl)-3,4-dihydroimidazo[1,2-a:5,4-c′]dipyridin-2(1H)-yl)-2-((2-ethylpyridin-3-yl)oxy)ethan-1-one], the IC50 worked out at 55 nM. In the case of `CS(=O)(=O)Nc1ccc(OCC(=O)N2CCc3nc4cnccn4c3C2c2ccc(Cl)cc2F)c(Cl)n1` (stereo not shown) [Example 17.2.1, N-(6-chloro-5-(2-(1-(4-chloro-2-fluorophenyl)-3,4-dihydropyrido[4′,3′:4,5]imidazo[1,2-a]pyrazin-2(1H)-yl)-2-oxoethoxy)pyridin-2-yl)methanesulfonamide] it was 214 nM.

For `O=C(COc1ccc(CN2CCOCC2)cc1Cl)N1CCc2nc3cc(C(F)(F)F)ccn3c2C1c1cccnc1` (stereo not shown) [Example 3.36.2, 2-(2-chloro-4-(morpholinomethyl)phenoxy)-1-(1-(pyridin-3-yl)-7-(trifluoromethyl)-3,4-dihydroimidazo[1,2-a:5,4-c′]dipyridin-2(1H)-yl)ethan-1-one], inhibition was half-maximal at 488 nM (IC50). In the case of `Cc1ccc(C2c3c(nc4cc(C(F)(F)F)ccn34)CCN2C(=O)COc2ccc(CN3CCOCC3)cc2Cl)cc1` (stereo not shown) [Example 3.23.2, 2-(2-chloro-4-(morpholinomethyl)phenoxy)-1-(1-(p-tolyl)-7-(trifluoromethyl)-3,4-dihydroimidazo[1,2-a:5,4-c′]dipyridin-2(1H)-yl)ethan-1-one] it was 32 nM. With `CCc1c(OCC(=O)N2CCc3nc4cc(C(F)(F)F)ccn4c3C2c2ccc(C3CC3)cc2F)ccc(C)[n+]1[O-]` (stereo not shown) [Example 3.5.3, 1-(1-(4-cyclopropyl-2-fluorophenyl)-7-(trifluoromethyl)-3,4-dihydroimidazo[1,2-a:5,4-c′]dipyridin-2(1H)-yl)-2-((2-ethyl-6-methyl-1-(I1-oxidanyl)-1I4-pyridin-3-yl)oxy)ethan-1-one], half-maximal inhibition (IC50) required 85 nM. `COc1ccc(C2c3c(nc4cc(Cl)ccn34)CCN2C(=O)COc2ccc3ccccc3c2)cc1OCCCO` (stereo not shown) [Example 2.12.1, 1-(7-chloro-1-(3-(3-hydroxypropoxy)-4-methoxyphenyl)-3,4-dihydroimidazo[1,2-a:5,4-c′]dipyridin-2(1H)-yl)-2-(naphthalen-2-yloxy)ethan-1-one] gave an IC50 of 22 nM. As for `O=C(COc1cccnc1C(F)(F)F)N1CCc2nc3ccccn3c2C1c1ccc(C2CC2)cc1F` (stereo not shown) [Example 1.5.6, 1-(1-(4-cyclopropyl-2-fluorophenyl)-3,4-dihydroimidazo[1,2-a:5,4-c′]dipyridin-2(1H)-yl)-2-((2-(trifluoromethyl)pyridin-3-yl)oxy)ethan-1-one], the figure is 13 nM. As for `COc1ccc(C2c3c(nc4cc(C(F)(F)F)ccn34)CCN2C(=O)COc2cccc(C(F)(F)F)c2)cc1OC` (stereo not shown) [Example 3.1.9], the figure is 422 nM. In the case of `O=C(COc1ccc2ccccc2c1)N1CCc2nc3cc(C(F)(F)F)ccn3c2C1c1ccc(C(F)(F)F)cc1` (stereo not shown) [Example 3.28.1, 2-(naphthalen-2-yloxy)-1-(7-(trifluoromethyl)-1-(4-(trifluoromethyl)phenyl)-3,4-dihydroimidazo[1,2-a:5,4-c′]dipyridin-2(1H)-yl)ethan-1-one], it took 154 nM to reach half-maximal inhibition (IC50).

Values taken from patent US20180155344A1, “TRICYCLIC PIPERIDINE COMPOUNDS” (ACTELION PHARMACEUTICALS LTD, priority 2015, published 2018).
